Measurements: US20260347347A1, “2-AZA-AND 2-OXABICYCLO[2.1.1]HEXANE DERIVATIVES AS FACTOR XIIA ENZYME INHIBITORS” (KALVISTA PHARMACEUTICALS LIMITED, priority 2022, published 2026)
Like-named read-outs stand apart in the source and are kept apart here.

Experiments:
human FXa = human FXa (Homo sapiens, UniProt P00742); experiment: Determination of related protease inhibition: FXa; type: biochemical
Description: (§1) In vitro inhibition of related proteases was determined using an IC50 assay based on standard literature methods (see e.g. Shori et al., Biochem. Pharmacol., 1992,43, 1209; Bouckaert et al., European Journal of Medicinal Chemistry 110 (2016) 181). Human serine protease enzyme Plasma Kallikrein, KLK1, FXa, Plasmin, Thrombin and Trypsin were assayed for enzymatic activity using an appropriate fluorogenic substrate at Km concentration, FXIa at fixed substrate concentration of 100 μM and various concentrations of the test compound. Protease activity was measured by monitoring the accumulation of liberated fluorescence from the substrate over 5 min at 25 °C. The linear rate of fluorescence increase per minute was expressed as percentage (%) activity. IC50 values were calculated as the concentration of inhibitor giving 50% inhibition of the uninhibited enzyme activity (100%).

human FXIa = human FXIa (Homo sapiens, UniProt P03951); experiment: Determination of related protease inhibition: FXIa; type: biochemical
Description: as §1

human thrombin = human thrombin (Homo sapiens, UniProt P00734); experiment: Determination of related protease inhibition: thrombin; type: biochemical
Description: as §1

human PKal = biological target: T1, human PKal (Homo sapiens, UniProt P03952); experiment: Determination of related protease inhibition: plasma kallikrein; type: biochemical
T1 construct: FXIIa converts plasma prekallikrein (PK) to plasma kallikrein (PKa)
Description: as §1

human plasmin = human plasmin (Homo sapiens, UniProt P00747); experiment: Determination of related protease inhibition: plasmin; type: biochemical
Description: as §1

Human Factor XIIa = biological target: T2, Human Factor XIIa (Homo sapiens, UniProt P00748); experiment: Determination of FXIIa inhibition (in vitro IC50 assay, fluorogenic substrate H-DPro-Phe-Arg-AFC); type: biochemical
T2 construct: purchased Enzyme Research Laboratories
T2 sequence (P00748 373-615 limits assumed): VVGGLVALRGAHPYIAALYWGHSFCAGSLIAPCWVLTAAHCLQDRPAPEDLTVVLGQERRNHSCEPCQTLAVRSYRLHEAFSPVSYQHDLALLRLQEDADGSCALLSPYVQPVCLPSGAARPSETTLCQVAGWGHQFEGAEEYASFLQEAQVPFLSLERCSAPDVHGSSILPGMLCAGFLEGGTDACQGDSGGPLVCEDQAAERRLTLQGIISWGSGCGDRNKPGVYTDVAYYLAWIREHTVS
T2 sequence (P00748 20-372 partner limits assumed): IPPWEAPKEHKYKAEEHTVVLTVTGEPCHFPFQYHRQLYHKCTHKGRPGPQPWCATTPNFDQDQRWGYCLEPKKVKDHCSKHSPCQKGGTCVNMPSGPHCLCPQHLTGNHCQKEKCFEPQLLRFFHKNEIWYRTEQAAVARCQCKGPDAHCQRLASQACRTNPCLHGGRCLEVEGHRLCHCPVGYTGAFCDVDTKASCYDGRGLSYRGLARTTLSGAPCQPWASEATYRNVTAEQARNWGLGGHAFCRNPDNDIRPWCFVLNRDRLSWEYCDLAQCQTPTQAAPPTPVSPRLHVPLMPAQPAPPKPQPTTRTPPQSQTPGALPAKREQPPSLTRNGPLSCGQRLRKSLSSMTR
Summary of the method: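 Human FXIIa incubated at 25 °C with compound and H-DPro-Phe-Arg-AFC at its Km concentration. Linear fluorescence increase monitored over 5 min, expressed as % of uninhibited activity; IC50 is concentration giving 50% inhibition.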

human KLK1 = human KLK1 (Homo sapiens, UniProt P06870); experiment: Determination of related protease inhibition: KLK1; type: biochemical
Description: as §1

human trypsin = experiment: Determination of related protease inhibition: trypsin; type: biochemical; settings: fluorogenic substrate at Km concentration, 25 °C
Description: as §1

[1] = test system: patients with type I/II hereditary angioedema (HAE); settings: phase 3, monthly prophylactic subcutaneous treatment; cited from earlier work
[2] = fluorogenic substrate at Km concentration, 25 °C, read-out: IC50 (human FXa)
[3] = fluorogenic substrate at Km concentration, 25 °C, read-out: IC50 (human thrombin)
[4] = fluorogenic substrate at Km concentration, 25 °C, read-out: IC50 (human PKal)
[5] = fluorogenic substrate at Km concentration, 25 °C, read-out: IC50 (human plasmin)
[6] = human Factor XIIa, fluorogenic substrate H-DPro-Phe-Arg-AFC at Km concentration, 5 min, 25 °C, class symbols, read-out: Human FXIIa IC50
[7] = fluorogenic substrate at Km concentration, 25 °C, read-out: IC50 (human KLK1)

T1 sequence (P03952 391-638 limits assumed): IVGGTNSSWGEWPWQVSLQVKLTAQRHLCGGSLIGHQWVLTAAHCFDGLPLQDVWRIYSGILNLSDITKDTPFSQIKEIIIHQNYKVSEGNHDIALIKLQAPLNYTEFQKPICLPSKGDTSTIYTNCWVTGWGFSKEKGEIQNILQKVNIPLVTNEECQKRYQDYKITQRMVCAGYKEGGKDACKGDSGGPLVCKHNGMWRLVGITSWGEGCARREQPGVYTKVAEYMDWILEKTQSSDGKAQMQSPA
T1 sequence (P03952 20-390 partner limits assumed): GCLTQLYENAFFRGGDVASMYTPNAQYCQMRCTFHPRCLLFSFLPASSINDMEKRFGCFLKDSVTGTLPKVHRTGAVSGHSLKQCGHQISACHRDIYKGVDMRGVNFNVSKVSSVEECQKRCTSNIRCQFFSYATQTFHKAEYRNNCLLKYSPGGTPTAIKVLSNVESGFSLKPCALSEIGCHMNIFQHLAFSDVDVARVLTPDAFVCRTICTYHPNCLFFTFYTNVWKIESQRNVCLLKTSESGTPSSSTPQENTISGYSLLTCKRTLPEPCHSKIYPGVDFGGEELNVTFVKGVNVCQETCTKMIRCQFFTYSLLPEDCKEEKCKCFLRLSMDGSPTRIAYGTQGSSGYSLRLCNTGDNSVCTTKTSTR
Sequence of human KLK1 (P06870 25-262): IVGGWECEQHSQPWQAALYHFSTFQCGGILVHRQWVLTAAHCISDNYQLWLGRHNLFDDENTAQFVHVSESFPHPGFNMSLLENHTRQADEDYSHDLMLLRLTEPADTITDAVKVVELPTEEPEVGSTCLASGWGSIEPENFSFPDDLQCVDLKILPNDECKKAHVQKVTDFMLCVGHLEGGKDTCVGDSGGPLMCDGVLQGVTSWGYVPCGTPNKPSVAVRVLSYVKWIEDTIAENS
Sequence of human FXa (P00742 235-488 limits assumed): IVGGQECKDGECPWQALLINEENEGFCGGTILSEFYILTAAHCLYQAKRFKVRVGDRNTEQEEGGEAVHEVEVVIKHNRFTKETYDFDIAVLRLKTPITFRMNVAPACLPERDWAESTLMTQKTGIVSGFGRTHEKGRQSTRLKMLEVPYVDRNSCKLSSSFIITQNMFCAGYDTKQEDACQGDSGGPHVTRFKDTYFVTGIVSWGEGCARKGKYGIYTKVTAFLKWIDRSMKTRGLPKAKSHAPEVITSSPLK
Sequence of human FXa (P00742 41-179 partner limits assumed): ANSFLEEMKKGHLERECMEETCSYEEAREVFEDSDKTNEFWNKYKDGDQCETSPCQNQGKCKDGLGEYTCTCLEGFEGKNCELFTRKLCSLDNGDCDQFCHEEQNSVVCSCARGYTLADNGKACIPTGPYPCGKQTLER
Sequence of human plasmin (P00747 581-810 limits assumed): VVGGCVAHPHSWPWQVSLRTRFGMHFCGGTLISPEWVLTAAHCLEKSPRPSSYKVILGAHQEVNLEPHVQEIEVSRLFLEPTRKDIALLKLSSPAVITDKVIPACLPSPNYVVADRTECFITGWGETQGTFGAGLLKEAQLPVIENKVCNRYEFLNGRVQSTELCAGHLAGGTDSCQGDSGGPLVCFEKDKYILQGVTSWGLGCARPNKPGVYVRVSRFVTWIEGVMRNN
Sequence of human plasmin (P00747 97-580 partner limits assumed): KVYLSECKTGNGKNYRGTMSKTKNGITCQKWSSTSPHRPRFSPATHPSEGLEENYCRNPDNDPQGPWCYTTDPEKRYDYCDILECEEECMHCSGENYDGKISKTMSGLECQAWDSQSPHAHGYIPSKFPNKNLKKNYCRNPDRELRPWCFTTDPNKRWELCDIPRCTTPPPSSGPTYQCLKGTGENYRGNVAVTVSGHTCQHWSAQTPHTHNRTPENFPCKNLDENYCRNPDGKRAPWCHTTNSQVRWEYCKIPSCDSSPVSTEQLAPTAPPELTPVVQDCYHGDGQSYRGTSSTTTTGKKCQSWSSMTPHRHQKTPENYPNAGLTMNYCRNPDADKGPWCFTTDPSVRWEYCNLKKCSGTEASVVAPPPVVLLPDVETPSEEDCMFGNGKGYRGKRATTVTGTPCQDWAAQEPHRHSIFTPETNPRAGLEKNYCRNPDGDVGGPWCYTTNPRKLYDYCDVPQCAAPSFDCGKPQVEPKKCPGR
Sequence of human FXIa (P03951 388-625 limits assumed): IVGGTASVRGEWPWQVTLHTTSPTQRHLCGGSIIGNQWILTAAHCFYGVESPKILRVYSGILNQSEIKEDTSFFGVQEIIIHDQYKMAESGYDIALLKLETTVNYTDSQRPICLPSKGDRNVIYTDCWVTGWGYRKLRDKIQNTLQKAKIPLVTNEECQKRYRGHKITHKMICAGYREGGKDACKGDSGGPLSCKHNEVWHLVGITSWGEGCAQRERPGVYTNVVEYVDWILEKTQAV
Sequence of human FXIa (P03951 19-387 partner limits assumed): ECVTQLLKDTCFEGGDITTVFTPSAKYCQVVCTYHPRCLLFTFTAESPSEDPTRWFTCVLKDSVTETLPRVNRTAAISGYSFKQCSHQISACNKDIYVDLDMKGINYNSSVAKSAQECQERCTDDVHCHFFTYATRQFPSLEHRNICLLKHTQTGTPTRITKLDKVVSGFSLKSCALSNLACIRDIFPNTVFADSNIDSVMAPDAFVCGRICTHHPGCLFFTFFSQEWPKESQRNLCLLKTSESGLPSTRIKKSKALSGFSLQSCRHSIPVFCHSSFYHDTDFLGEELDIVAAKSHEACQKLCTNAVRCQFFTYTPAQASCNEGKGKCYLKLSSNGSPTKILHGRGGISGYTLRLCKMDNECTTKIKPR

| IC50 (human FXa; [2]) [µM] | IC50 (human thrombin; [3]) [µM] | IC50 (human PKal; [4]) [µM] | IC50 (human plasmin; [5]) [µM] | IC50 (Human Factor XIIa; [6]) [µM] | IC50 (human KLK1; [7]) [µM] | Compound | also measured |
| --- | --- | --- | --- | --- | --- | --- | --- |
| 10 to 40 | > 40 | > 40 | 10 to 40 | 0.01 to 0.1 | 10 to 40 | Cc1cc(OCC23CN(C(=O)C4CC5(CCOCC5)C4)C(CNc4cccc5c(N)nccc45)(C2)C3)cc(=O)n1C [Example 20, 4-((1-(((1-aminoisoquinolin-5-yl)amino)methyl)-2-(7-oxaspiro[3.5]nonane-2-carbonyl)-2-azabicyclo[2.1.1]hexan-4-yl)methoxy)-1,6-dimethylpyridin-2(1H)-one] | IC50 (human FXIa; fixed substrate concentration of 100 μM, 25 °C, read-out: IC50 (human FXla)): 10 to 40 µM |
| 10 to 40 | 10 to 40 | > 40 | 3 to 10 | 0.01 to 0.1 | 1 to 3 | Cn1ccc(OCC23CN(C(=O)CC4CCCCC4)C(CNc4cccc5c(N)nccc45)(C2)C3)cc1=O [Example 5, 4-((1-(((1-aminoisoquinolin-5-yl)amino)methyl)-2-(2-cyclohexylacetyl)-2-azabicyclo[2.1.1]hexan-4-yl)methoxy)-1-methylpyridin-2(1H)-one] | IC50 (human trypsin): 10 to 40 µM |
|  |  |  |  | 0.01 to 0.1 |  | Cn1ccc(CCC(=O)N2CC3(COc4ccn(C)c(=O)c4)CC2(CNc2cccc4c(N)nccc24)C3)cc1=O [Example 19, 4-((1-(((1-aminoisoquinolin-5-yl)amino)methyl)-2-(3-(1-methyl-2-oxo-1,2-dihydropyridin-4-yl)propanoyl)-2-azabicyclo[2.1.1]hexan-4-yl)methoxy)-1-methylpyridin-2(1H)-one] |  |

The remaining lines, values behind:

| Compound | IC50 (human FXa; [2]) [µM] | IC50 (human thrombin; [3]) [µM] | IC50 (human PKal; [4]) [µM] | IC50 (human plasmin; [5]) [µM] | IC50 (Human Factor XIIa; [6]) [µM] | IC50 (human KLK1; [7]) [µM] | also measured |
| --- | --- | --- | --- | --- | --- | --- | --- |
| Cn1ccc(OCC23CN(C(=O)NC4(c5ccccc5)CC4)C(CNc4cccc5c(N)nccc45)(C2)C3)cc1=O [Example 30, 1-(((1-Aminoisoquinolin-5-yl)amino)methyl)-4-(((1-methyl-2-oxo-1,2-dihydropyridin-4-yl)oxy)methyl)-N-(1-phenylcyclopropyl)-2-azabicyclo[2.1.1]hexane-2-carboxamide] |  |  |  |  |  |  | IC50 (human FXa): 10 to 40 µM; IC50 (human FXIa): 3 to 10 µM; IC50 (human thrombin): > 40 µM; IC50 (human PKal): 10 to 40 µM; IC50 (human plasmin): 10 to 40 µM; IC50 (Human Factor XIIa): 0.001 to 0.01 µM; IC50 (human KLK1): 1 to 3 µM |
| Garadacimab: Garadacimab (CSL-312), a monoclonal antibody inhibitory against FXIIa |  |  |  |  |  |  | attacks in patients with type I/II hereditary angioedema [1]: reduce attacks |
